Test results published in patent US6680300B2 (Board of Regents, The University of Texas System, priority 1998, dated 2004).
≈ marks a conversion by molar mass, not a printed value. Where “and” joins values, the source holds several entries; their conditions need not be identical. Identical values can stand only once.

How the values were obtained:
[1] = tested on: human carcinoma sensitive (KB) cells; assay: MTT cytotoxicity assay, sensitive KB cells; assay type: cell-based; settings: 72 hours incubation
Protocol: (§1) Compounds synthesized using the methods described above were tested using a standard MTT assay (Green et al., 1984) against human carcinoma sensitive (KB) and multi-drug-resistant (KBV1) cells and MCF-7 and MCF-7/VP-16 resistant cells characterized as having the MRP (multi-drug resistant associated protein) phenotype. The use of an MTT assay using these cells is recognized as an accepted assay for anti-tumor activity by those in the field.
(§2) In vitro drug cytotoxicities against human breast carcinoma wild-type MCF-7 and MRP-resistant MCF-7/VP-16 cells were assessed by using the MTT reduction assay, as previously reported (Green et al., 1984). The MTT dye was obtained from Sigma Chemical Co. (St. Louis, Mo.). Cells were plated in 96-well microassay culture plates (10^4 cells/well) and grown overnight at 37° C. in a 5% CO2 incubator. Drugs were then added to the wells to achieve a final drug concentration ranging from 0.1 to 50 μg/mL. Four wells were used for each concentration. Control wells were prepared by adding appropriate volumes of calcium- and magnesium-free PBS (pH 7.4). Wells containing culture medium without cells were used as blanks. The plates were incubated at 37° C. in a 5% CO2 incubator for 72 hours. Upon completion of the incubation, 20 μL of stock MTT dye solution (5 mg/mL) was added to each well. After a 4-hour incubation, 100 μL of buffer containing 50% N,N-dimethylformamide and 20% SDS was added to solubilize the MTT formazan. Complete solubilization was achieved by placing the plate in a mechanical shaker for 30 minutes at room temperature. The optical density of each well was then measured with a microplate spectrophotometer at a wavelength of 570 nm. The percent cell viability was calculated by the following equation:
(§3) % cell viability=(OD treated wells/OD control wells)×100
where OD is the mean optical density from four determinations. The percent cell viability values were plotted against the drug concentrations used, and the ID50 was calculated from the curve. Cytotoxicity experiments were repeated at least three times. […]

[2] = tested on: multi-drug-resistant (KBV1) carcinoma cells overexpressing MDR1 (P-gp); assay: MTT cytotoxicity assay, multi-drug-resistant KBV1 cells; assay type: cell-based, human; settings: for RI (resistance index) KBV1 vs KB: KBV1 relative to KB; for ID50 KBV1: MTT, 72 hours incubation, KBV1 cells
Protocol: as §1, §2, §3
(§4) where OD is the mean optical density from four determinations. The percent cell viability values were plotted against the drug concentrations used, and the ID50 was calculated from the curve. Cytotoxicity experiments were repeated at least three times.
(§5) Drug resistance, both de novo and acquired, by human tumors is currently a major factor limiting the effectiveness of chemotherapy. […] Using this system, the inventors evaluate a drug's cytotoxic potential against human tumors and at the same time identify compounds that might have unique activity against MDR tumors (Priebe et al., 1993).

[3] = tested on: human breast carcinoma wild-type MCF-7 cells; assay: MTT cytotoxicity assay, wild-type MCF-7 cells; assay type: cell-based; settings: 72 hours incubation
Protocol: as §1
(§6) In vitro drug cytotoxicities against human breast carcinoma wild-type MCF-7 and MRP-resistant MCF-7/VP-16 cells were assessed by using the MTT reduction assay, as previously reported (Green et al., 1984). The MTT dye was obtained from Sigma Chemical Co. (St. Louis, Mo.). Cells were plated in 96-well microassay culture plates (10^4 cells/well) and grown overnight at 37° C. in a 5% CO2 incubator. Drugs were then added to the wells to achieve a final drug concentration ranging from 0.1 to 50 μg/mL. Four wells were used for each concentration. […] The optical density of each well was then measured with a microplate spectrophotometer at a wavelength of 570 nm. The percent cell viability was calculated by the following equation: […]
(§7) where OD is the mean optical density from four determinations. The percent cell viability values were plotted against the drug concentrations used, and the ID50 was calculated from the curve. […]

[4] = tested on: MCF-7/dox cell line which overexpresses MDR1 gene; assay: MTT cytotoxicity assay, MCF-7/dox cells; assay type: cell-based, human; settings: for RI (resistance index) MCF-7/dox vs MCF-7: MCF-7/dox relative to MCF-7; for ID50 MCF-7/dox: MTT, 72 hours incubation, MCF-7/dox cells
Protocol: [Worded in the source for another cell line; this cell line is reported under the same test.] as §1, §2, §3, §4, §5

[5] = tested on: MRP-resistant MCF-7/VP-16 cells; assay: MTT cytotoxicity assay, MRP-resistant MCF-7/VP-16 cells; assay type: cell-based, human
Protocol: as §1, §6, §7

several cell lines = assay: In vitro potency comparison in several cell lines; assay type: cell-based; settings: in vitro cytotoxicity

Compound: COc1cccc2c1C(=O)c1c(O)c3c(c(O)c1C2=O)C[C@@](O)(C(C)=O)C[C@@H]3O[C@H]1C[C@H](N)[C@H](O)[C@H](C)O1 [DNR, daunorubicin]
- ID50 KB [1]: 220 ± 10 ng/mL (≈ 417 nM)
- RI (resistance index) KBV1 vs KB [2]: 45
- ID50 KBV1 [2]: 10,000 ± 0 ng/mL

Compound: COc1cccc2c1C(=O)c1c(O)c3c(c(O)c1C2=O)C[C@@](O)(C(=O)CO)C[C@@H]3O[C@H]1C[C@H](N)[C@H](O)[C@H](C)O1 [DOX, doxorubicin]
- ID50 KB [1]: 340 ± 100 ng/mL (≈ 626 nM)
- RI (resistance index) KBV1 vs KB [2]: >294
- ID50 KBV1 [2]: >100,000 ng/mL
- ID50 MCF-7 [3]: 300 ± 170 ng/mL and 240 ± 50 ng/mL
- RI (resistance index) MCF-7/dox vs MCF-7 [4]: >333 and >416
- ID50 MCF-7/dox [4]: 100,000 ng/mL and >100,000 ng/mL

Compound: COc1cccc2c1C(=O)c1c(O)c3c(c(O)c1C2=O)C[C@@](O)(C(=O)CO)C[C@@H]3O[C@H]1C[C@H]2[C@H](OC3CCCN32)[C@H](C)O1 (stereo partly shown) [WP836]
- ID50 KB [1]: 0.65 ± 0.14 ng/mL and 0.5 ± 0.06 ng/mL
- ID50 MCF-7 [3]: 0.43 ± 0.06 ng/mL (≈ 0.722 nM)
- RI (resistance index) MCF-7/VP-16 vs MCF-7 ([5]; MCF-7/VP-16 relative to MCF-7): 1
- ID50 MCF-7/VP-16 ([5]; MTT, 72 hours incubation, MCF-7/VP-16 cells): 0.43 ± 0.06 ng/mL (≈ 0.722 nM)
- RI (resistance index) MCF-7/dox vs MCF-7 [4]: 1.56
- ID50 MCF-7/dox [4]: 0.67 ± 0.15 ng/mL (≈ 1.12 nM)
- potency relative to daunorubicin analog WP809 (several cell lines): several fold
